These results are taken from patent publication US20210338782A1, “STORAGE STABLE SOMATOSTATIN-DOPAMINE CHIMERIC COMPOUNDS AND SALT FORMS THEREOF” (Cydan II, Inc., priority 2019, published 2021).

Entries after “also recorded” stand apart in the source; their conditions may differ. Structures can show the parent of a compound that is named as a salt.

Format in all cases: physicochemical
A short description of data set [1]: Thermostability of alternative salt forms of lanreotide and TBR-760 (UPLC). The following applies: for compound degraded: 4 weeks at 60° C. and ambient humidity; for thermostability in words: increasing temperature and humidity (25° C./60% RH, 40° C./75% RH, 60° C.) up to 4 weeks. How it is done:
(§1) Each TBR-760 salt was further evaluated for thermolytic stability over time by setting up three different exposure conditions (25° C. at 60% relative humidity (RH); 40° C. at 75% RH; or 60° C. with open and closed container systems (open dish/closed dish). Approximately 50 mg of each salt form was weighed in a nitrogen-flushed glove box for use in the studies. All samples were stored at −20° C. in a good laboratory practice (GLP) freezer both before and after exposure to the indicated conditions.
(§2) The stability of each salt form was assessed by monitoring the post-exposure drug peak purity and by evaluating the post-exposure visual appearance of the salt. The samples were removed from the exposure conditions and allowed to equilibrate to ambient conditions for 15-20 mins. An appropriate amount of each sample was weighed for analysis and dissolved in diluent (deionized water containing 0.1% TFA) to obtain a stock concentration of 1 mg/mL. The stock solution was then diluted to 0.125 mg/mL in an HPLC vial using diluent and the samples were run on a Waters Acquity UPLC system using the parameters shown in Table 4.
We conducted thermostability studies of lanreotide acetate substantially as described in Example 6. These experiments confirmed that lanreotide acetate is […] when exposed to increasing temperature and humidity conditions over time (FIG. 45). […] (FIG. 45). This degree of thermal and humidity instability is disfavored for a pharmaceutical agent, particularly one intended for patient self-administration at home.
To determine whether a thermostable salt form of TBR-760 could be manufactured, a salt exchange was performed as described in Example 1 to generate bromide and chloride salts of TBR-760. Lanreotide bromide and lanreotide chloride salts were also generated and assessed for thermostability to evaluate the effect of the salt form on compound stability and to compare stability of lanreotide and TBR-760 of each salt.
UPLC assays performed as described in Example 6 were further used to determine the number of degradants—and thus the number of impurities—in each sample. Results showing the purity assessment of each sample following thermostability studies are shown in FIGS. 48A-48B (lanreotide and TBR-760 acetate salts), 49A-49B (lanreotide and TBR-760 bromide salts), and 50A-50B (lanreotide and TBR-760 chloride salts).

Data set [2] can be described thus: Photostability of alternative salt forms of lanreotide and TBR-760. The following applies: 1.2 million lux hours visible light or 200 watt hours/square meter UV light. An excerpt: (§3) In order to evaluate the light sensitivity and stability of TBR-760 chimeric peptide salts, all five salt forms were exposed to ultraviolet (UV) and visible light according to International Council for Harmonisation of Technical Requirements for Pharmaceuticals for Human Use (ICH) guideline Q1B for photostability testing. In brief, a Caron 6540-1 photostability chamber unit with separate UV and light chambers was used for the studies. Visible light exposure was 1.2 million lux hours and UV exposure was 200 watt hours/square meter.
Photostability of lanreotide acetate, lanreotide bromide, lanreotide chloride, TBR-760 acetate, TBR-760 bromide and TBR760 chloride was tested according to the methods of Example 7. Four samples were prepared for each salt form: one control for each of the UV and visible light exposure conditions (controls isolated from light) and one sample for exposure to each of the UV and visible light conditions. For each sample, 2-5 mg of the salt was weighed into 3 mL clear serum vials and stoppered. Vials containing control samples were wrapped in aluminum foil.
Following exposure to visible and UV light, all lanreotide and TBR-760 salts were analyzed by UPLC as described in Example 7.

Data set [3] is described as follows: Thermogravimetric analysis (TGA) of TBR-760 salt forms. The following applies: ramp 5.0° C. per minute from 25 to 400° C.; listed as mesylate salt. The procedure: Thermogravimetric analyses (TGA) were performed on all TBR-760 salt forms to evaluate thermal stability of each salt form. Studies were performed using a TGA-Q500 thermogravimetric analyzer (TA Instruments). The weight of each compound was measured while the temperature was increased at a ramp rate of 5.0° C. per minute from 25 to 400° C. […] The weight loss may be indicative of loss of adsorbed moisture, entrained solvent or volatile impurities. Decomposition of the compound appears to start at about 234° C. (sulfate salt), 245° C. (chloride salt), 252° C. (tosylate salt), and 255° C. (mesylate salt). For the acetate salt, a further ˜5% loss of weight between 110° C. and 200° C. was observed, indicating loss of volatile acetate ions over that temperature range (FIG. 8).

Data set [4] can be described thus: Solid state (thermolytic) stability of TBR-760 salt forms, open container, UPLC peak purity and appearance. The procedure:
as §1, §2

Data set [5] in a line: Photostability of TBR-760 salt forms (ICH Q1B, visible and UV light), appearance and UPLC purity.
Text: as §3
Samples were placed in clear, sealed vials and stored in the appropriate chamber alongside dark controls in amber colored vials wrapped in aluminum foil. Control samples were stored in sealed amber vials at −20° C. The appearance of exposed samples was examined visually before being analyzed via UPLC.

Setting [6] is: listed as hydrobromide salt of TBR-760.
Where [7] appears, read: 25° C. at 60% RH, open container.
Setting [8] is: 40° C. at 75% RH, open container.
Where [9] appears, read: UPLC peak purity, 25° C. at 60% RH, open container.
[10] abbreviates: UPLC peak purity, 40° C. at 75% RH, open container.
[11] abbreviates: UPLC peak purity, 60° C., open dish.
The mark [12] stands for this setting: listed as lanreotide hydrobromide.

Turning to `CCCN1C[C@H](CSCC(=O)NCCCC[C@@H](NC(=O)CSC[C@@H]2C[C@@H]3c4cccc5[nH]cc(c45)C[C@H]3N(CCC)C2)C(=O)N[C@H]2CSSC[C@@H](C(=O)N[C@H](C(N)=O)[C@@H](C)O)NC(=O)[C@H](CC)NC(=O)[C@H](CCCCN)NC(=O)[C@@H](Cc3c[nH]c4ccccc34)NC(=O)[C@H](Cc3ccc(O)cc3)NC2=O)C[C@@H]2c3cccc4[nH]cc(c34)C[C@H]21` [TBR-760 bromide, Dop2-D-Lys(Dop2)-cyclo[Cys-Tyr-D-Trp-Lys-Abu-Cys]-Thr-NH2], the compound degraded entry in data set [1] is recorded as “more than 23%”. Moreover, the thermostability in words result in data set [1] (setting [6]) is listed as “significantly degraded”. The “photostability in words (UPLC purity)” value in data set [2] is reported as “greater loss of purity than TBR-760 acetate or TBR-760 chloride”; in data set [2] (setting [6]), “significantly degraded”. The “visible appearance after exposure to visible and UV light” value in data set [2] (versus control) is “did not visibly change”.
As to `CCCN1C[C@H](CSCC(=O)NCCCC[C@@H](NC(=O)CSC[C@@H]2C[C@@H]3c4cccc5[nH]cc(c45)C[C@H]3N(CCC)C2)C(=O)N[C@H]2CSSC[C@@H](C(=O)N[C@H](C(N)=O)[C@@H](C)O)NC(=O)[C@H](CC)NC(=O)[C@H](CCCCN)NC(=O)[C@@H](Cc3c[nH]c4ccccc34)NC(=O)[C@H](Cc3ccc(O)cc3)NC2=O)C[C@@H]2c3cccc4[nH]cc(c34)C[C@H]21` [TBR-760 mesylate, Dop2-D-Lys(Dop2)-cyclo[Cys-Tyr-D-Trp-Lys-Abu-Cys]-Thr-NH2], the “TGA start of decomposition” value in data set [3] is approximately 255 °C. For the same compound, the “Appearance, T = 2 wk” value in data set [4] (setting [7]) was “White”; in data set [4] (setting [8]) it was “White”; in data set [4] (60° C., open dish) it was “White”. The “Appearance, T = 4 wk” value is “White” in data set [4] (setting [7]); “White” in data set [4] (setting [8]); “White” in data set [4] (60° C., open dish). The “Appearance, T = 3 d” value in data set [4] (setting [7]) was “White”; in data set [4] (setting [8]), “White”; in data set [4] (60° C., open dish) it was “White”. The “stability compared with the other salt forms” value in data set [4] (40° C. at 75% RH and 60° C., 2 and 4 weeks) was “significantly more stable”. Also, the “Purity, T = 2 wk” value was 98.14 in data set [4] (setting [9]), 97.49 in data set [4] (setting [10]) and 97.56 in data set [4] (setting [11]). Further, the “Purity, T = 4 wk” value amounted to 97.77 in data set [4] (setting [9]), 97.35 in data set [4] (setting [10]) and 97.17 in data set [4] (setting [11]). Besides, the “Purity, Control” value stood at 98.39 in data set [4] (UPLC peak purity, control, stored at -20° C.) and 98.39 in data set [5] (UPLC, control in sealed amber vial at -20° C.). The “Appearance, Control” value is reported as “White” in data set [4] (control, stored at -20° C.) and “white” in data set [5] (control in sealed amber vial at -20° C.). Also, in data set [5] (UPLC, UV 200 watt hours/square meter, clear sealed vial), the “Purity, UV-exposed” value worked out at 96.67. Further, in data set [5] (UPLC, dark control in UV chamber), the “Purity, Dark Ctrl-UV” value worked out at 98.35. Moreover, in data set [5] (UPLC, dark control in visible light chamber), the “Purity, Dark Crtl-Light” value worked out at 98.46. For the same compound, in data set [5] (UPLC, visible light 1.2 million lux hours, clear sealed vial), the “Purity, Light-exposed” value was 95.3. Further, the “Appearance, UV-exposed” value in data set [5] (UV 200 watt hours/square meter, clear sealed vial, listed as Mesylate) is given as “off-white”; in data set [5] (UV 200 watt hours/square meter, clear sealed vial, listed as mesylate), “white to off-white”. For the same compound, the “Appearance, Dark Ctrl-UV” value in data set [5] (dark control in UV chamber, amber vial wrapped in aluminum foil) is recorded as “white”. For the same compound, the “Appearance, Dark Crtl-Light” value in data set [5] (dark control in visible light chamber, amber vial wrapped in aluminum foil) was “white”. The “degradation upon exposure to visible or UV light, in words” value in data set [5] (visible and UV light, UPLC) is recorded as “more resistant to degradation than TBR-760 acetate”. Also, the “Appearance, Light-exposed” value in data set [5] (visible light 1.2 million lux hours, clear sealed vial, listed as Mesylate) is listed as “off-white”; in data set [5] (visible light 1.2 million lux hours, clear sealed vial, listed as mesylate) it was “white to off-white”.
Regarding `CC(C)[C@@H]1NC(=O)[C@H](CCCCN)NC(=O)[C@@H](Cc2c[nH]c3ccccc23)NC(=O)[C@H](Cc2ccc(O)cc2)NC(=O)[C@@H](NC(=O)[C@H](N)Cc2ccc3ccccc3c2)CSSC[C@@H](C(=O)N[C@H](C(N)=O)[C@@H](C)O)NC1=O` [lanreotide acetate, lanreotide, reference compound], the thermostability in words result in data set [1] is recorded as “thermostable; also recorded: stable”. For the same compound, the “photostability in words (UPLC purity)” value in data set [2] was “stable to both visible and UV light”.
Turning to `CC(C)[C@@H]1NC(=O)[C@H](CCCCN)NC(=O)[C@@H](Cc2c[nH]c3ccccc23)NC(=O)[C@H](Cc2ccc(O)cc2)NC(=O)[C@@H](NC(=O)[C@H](N)Cc2ccc3ccccc3c2)CSSC[C@@H](C(=O)N[C@H](C(N)=O)[C@@H](C)O)NC1=O` [lanreotide bromide, lanreotide, reference compound], the compound degraded entry in data set [1] is reported as “more than 7%”. Besides, the thermostability in words result in data set [1] (setting [12]) is “moderately stable; also recorded: less stable than lanreotide acetate”. Moreover, the “photostability in words (UPLC purity)” value in data set [2] (setting [12]) is recorded as “moderately stable”.
